pEC50: −log10 of the molar value. Blank lines part the entries; values can stand above or below the compound they belong to.
Assays:
U87 cell lines = assay: cytotoxicity in GFP transfected U87 cells (cell number); assay type: cell-based, human; conditions: for reduction of number of cells: U87, 0.1 μm; for reduction of cell number / cytotoxic effect (in words): U87, 10 μm; for cytotoxic effect (in words): bumetanide at day 3 and day 5
Method: The HEK cell line is a specific immortalised cell line widely used in cell biology and biotechnology research and the U87 cell line is a human glioblastoma cell line that is commonly used in brain cancer research.
The effects of bumetanide alone or in combination with mebendazole were investigated in U87 cell lines at 0.1, 1, and 10 μm. Each experiment was performed in triplicate (n=3). Cells were GFP transfected (green). Cytotoxicity is manifested by loss of GFP and presence of small round flat cells loosing GFP expression indicative of cell death (apoptosis).

U87 cells [1] = assay: scratch test (invasion of tumour cells); assay type: cell-based, human; conditions: U87, 0.1 μm; for reduction of invasion: day 5, compared to controls not treated; for anti-invasive action (persistence of a trench): day 8
Source text: To further investigate invasion of tumour cells, we performed a scratch test. This test enables to visualize the propagation and metastasis of tumour cells determined by their capacity to cross the trench. Therefore, U87 cells are cultivated and a scratch is made with a blade in order to estimate the strength and rapidity of invasion.

U87 cells [2] = assay: immunochemistry (Dapi, iodure propidium, Actin/GFP) viability of cells; assay type: cell-based, human; conditions: U87, 1 μm; control: 3%
Source text: The labels used are Dapi (blue) iodure propidium (red) and Actin immunocytochemistry with GFP (green) in order to visualize the viability and non-viability of cells.
To better illustrate the effects of bumetanide and mebendazole, we used Dapi (blue) iodure propidium (red) and Actin immunocytochemistry with GFP (green) in order to visualize the viability and non-viability of cells.

NKCC1 = biological target: T1, NKCC1 (Homo sapiens, UniProt P55011); assay: dose response on NKCC1-mediated K+ influx (FIG. 1B); assay type: cell-based; conditions: HEK293 cells, dose response curves
T1 construct: endogenous in cells; host or cells: HEK293
T1 sequence (P55011 1-1212): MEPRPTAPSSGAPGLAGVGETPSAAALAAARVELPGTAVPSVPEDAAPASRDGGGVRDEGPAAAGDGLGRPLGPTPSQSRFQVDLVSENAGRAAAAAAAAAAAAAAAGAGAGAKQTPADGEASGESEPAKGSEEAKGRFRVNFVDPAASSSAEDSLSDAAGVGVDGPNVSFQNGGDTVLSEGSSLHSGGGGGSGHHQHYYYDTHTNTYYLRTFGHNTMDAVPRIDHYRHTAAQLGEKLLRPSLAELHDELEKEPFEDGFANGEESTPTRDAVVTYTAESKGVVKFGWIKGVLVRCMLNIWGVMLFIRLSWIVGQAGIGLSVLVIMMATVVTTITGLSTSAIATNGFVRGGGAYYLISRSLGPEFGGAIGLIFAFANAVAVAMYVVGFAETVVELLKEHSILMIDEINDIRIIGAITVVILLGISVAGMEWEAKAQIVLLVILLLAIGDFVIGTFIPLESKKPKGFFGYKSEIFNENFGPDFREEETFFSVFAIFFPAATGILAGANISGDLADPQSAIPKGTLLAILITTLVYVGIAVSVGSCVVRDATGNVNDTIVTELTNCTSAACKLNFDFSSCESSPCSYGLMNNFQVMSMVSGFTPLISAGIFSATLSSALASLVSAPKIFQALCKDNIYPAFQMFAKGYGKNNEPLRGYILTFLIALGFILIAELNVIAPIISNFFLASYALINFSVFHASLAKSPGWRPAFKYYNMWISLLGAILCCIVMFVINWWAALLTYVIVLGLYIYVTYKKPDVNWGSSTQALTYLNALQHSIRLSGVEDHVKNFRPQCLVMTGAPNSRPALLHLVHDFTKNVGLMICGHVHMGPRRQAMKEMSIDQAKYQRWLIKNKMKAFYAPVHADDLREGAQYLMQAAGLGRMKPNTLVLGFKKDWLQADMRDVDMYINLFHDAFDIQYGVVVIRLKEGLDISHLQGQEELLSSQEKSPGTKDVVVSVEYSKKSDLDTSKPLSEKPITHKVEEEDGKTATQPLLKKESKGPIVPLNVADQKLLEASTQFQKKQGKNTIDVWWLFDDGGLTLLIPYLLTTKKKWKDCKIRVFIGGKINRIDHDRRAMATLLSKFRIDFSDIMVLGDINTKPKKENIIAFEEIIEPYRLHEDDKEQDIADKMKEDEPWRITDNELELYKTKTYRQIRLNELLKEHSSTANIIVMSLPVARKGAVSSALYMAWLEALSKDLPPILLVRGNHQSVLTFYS

[3] = tested on: K^+ influx in HEK293 cells; assay: K+ influx in HEK293 cells (FIG. 1A); assay type: cell-based, human; conditions: ouabain 100 uM
glioblastoma = conditions: rodent glioblastoma models; shifted from 20 days; cited from earlier work

pEC50 (NKCC1): 6.51
Structure (SMILES): CCCCNc1cc(C(=O)O)cc(S(N)(=O)=O)c1Oc1ccccc1 [bumetanide]
reduction of number of cells (U87 cell lines; day 3): not | reduction of number of cells (U87 cell lines; day 5): not | reduction of cell number (U87 cell lines; day 8): 18% | cytotoxic effect (in words) (U87 cell lines): strong cytotoxic action | reduction of invasion (U87 cells [1]): 40% | anti-invasive action (persistence of a trench) (U87 cells [1]): neither applications of mebendazole or bumetanide separately produced an anti-invasive action | dead cells / reduction of cell density (U87 cells [2]): 3,2% | inhibition of K+ influx [3]: 49%

EC50 on NKCC1-mediated K+ influx (NKCC1): inefficacy
Structure (SMILES): COC(=O)Nc1nc2ccc(C(=O)c3ccccc3)cc2[nH]1 [mebendazole, methyl N-[6-(benzoyl)-1H-benzimidazol-2-yl] carbamate]
reduction of number of cells (U87 cell lines; day 3): 43% | reduction of number of cells (U87 cell lines; day 5): 90% | reduction of number of cells (U87 cell lines; day 8): 70% | reduction of cell number (U87 cell lines; day 1): 55% | reduction of cell number (U87 cell lines; day 5): 89% | reduction of cell number (U87 cell lines; day 8): 64% | cytotoxic effect (in words) (U87 cell lines): very strong cytotoxic effect | reduction of invasion (U87 cells [1]): 15% | anti-invasive action (persistence of a trench) (U87 cells [1]): neither applications of mebendazole or bumetanide separately produced an anti-invasive action | dead cells / reduction of cell density (U87 cells [2]): 50% | mean survival (glioblastoma): 49 days | inhibition of K+ influx [3]: ineffective

Structure (SMILES): CCCSc1ccc2nc(NC(=O)OC)[nH]c2c1 [ABZ, albendazole]
mean survival (glioblastoma): 36 days

Structure (SMILES): C[C@@H]1O[C@@H](O[C@H]2C[C@@H](O)[C@]3(CO)[C@H]4[C@H](O)C[C@]5(C)[C@@H](C6=CC(=O)OC6)CC[C@]5(O)[C@@H]4CC[C@]3(O)C2)[C@H](O)[C@H](O)[C@H]1O [ouabain]
inhibition at 100 µM ([3]; Homo sapiens): 44%

Reference: US20240033238A1, “COMBINATION OF COMPOUNDS FOR USE IN THERAPY” (B&A ONCOMEDICAL, priority 2022, published 2024)
